Reference: patent US20020137929A1, “1 - (3-heterocyclylphenyl) isothiourea, -isourea, -guanidine and -amidine herbicidal agents” (Intellectual Property Department, BASF Aktiengesellschaft, priority 1998, published 2002)

Tests used:
ABUTH (Velvetleaf) [1] = assay: Preemergence herbicidal evaluation; assay type: in vivo, Abutilon theophrasti; details: rated 4-5 weeks after treatment, rating scale 0-9
How it was run: (§1)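 Seeds were mixed with potting soil and planted on about one inch of soil, then sprayed with test compound in aqueous acetone at about 0.0156 to 0.500 kg per hectare. Plants grew under standard greenhouse care and were visually rated 0-9 against untreated controls 4-5 weeks post-treatment.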

[2] = test system: ECHORC (Watergrass (Calif.)); assay: Preemergence weed control under flooded paddy conditions; assay type: in vivo, Echinochloa oryzoides; details: rated 3-4 weeks after treatment
How it was run: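 Silt loam, seeds in top 0.5 cm; flood held 1.5-3 cm; test cpd as acetone/water 50/50 into flood water, ~0.0313-0.500 kg/ha a.i.; greenhouse 3-4 wk; visual 0-9 score vs control.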

CASOB (Sicklepod) = assay: Preemergence herbicidal evaluation; assay type: in vivo, Cassia obtusifolia; details: rated 4-5 weeks after treatment, rating scale 0-9
How it was run: as §1

CYPSE (Flatsedge) = assay: Preemergence weed control under flooded paddy conditions; assay type: in vivo, Cyperus serotinus; details: rated 3-4 weeks after treatment
How it was run: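 Using flooded silt loam (water 1.5 to 3 cm deep), seeds sown in the top 0.5 cm were exposed preemergence to compound pipetted into the flood at about 0.0313 to 0.500 kg/ha. Effects were scored 0-9 by eye three to four weeks later.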

AMBEL (Ragweed, Common) = assay: Preemergence herbicidal evaluation; assay type: in vivo, Ambrosia artemisifolia; details: rated 4-5 weeks after treatment, rating scale 0-9
How it was run: as §1

ZEAMX (Corn, Field) = assay: Postemergence herbicidal evaluation; assay type: in vivo, Zea mays; details: postemergence
How it was run: (§2)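 ~2-wk seedlings; postemergence spray, 40 psi; vehicle 1:1 acetone:water + 0.5% Tween 20; rate ≈0.0156–0.500 kg/ha; greenhouse hold; scored 4–5 wk after treatment, 0–9 scale vs control; repeat tests averaged.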

[3] = test system: IPOHE (Morningglory, Ivyleaf); assay: Preemergence herbicidal evaluation; assay type: in vivo, Ipomoea hederacea; details: rated 4-5 weeks after treatment, rating scale 0-9
How it was run: as §1

SETVI (Foxtail, Green) = assay: Postemergence herbicidal evaluation; assay type: in vivo, Setaria viridis; details: postemergence
How it was run: as §2

[4] = test system: GLXMAW (Soybean, Williams); assay: Postemergence herbicidal evaluation; assay type: in vivo, Glycine max, (L.) Merr. cv Williams; details: postemergence
How it was run: as §2

ABUTH (Velvetleaf) [5] = assay: Postemergence herbicidal evaluation; assay type: in vivo, Abutilon theophrasti; details: postemergence
How it was run: as §2

[6] = test system: IPOHE (Morningglory, Ivyleaf); assay: Postemergence herbicidal evaluation; assay type: in vivo, Ipomoea hederacea; details: postemergence
How it was run: as §2

ECHCG (Barnyardgrass) = assay: Preemergence herbicidal evaluation; assay type: in vivo, Echinochloa crus-galli; details: rated 4-5 weeks after treatment, rating scale 0-9
How it was run: as §1

Cn1c(C(F)(F)F)cc(=O)n(-c2cc(N=C3SCC(=O)N3Cc3cccc(Cl)c3)c(Cl)cc2F)c1=O [Compound 136, 3-{4-Chloro-5-{[3-(m-chlorobenzyl)-4-oxo-2-thiazolidinylidene]amino}-2-fluorophenyl}-1-methyl-6-(trifluoromethyl)-2,4(1H,3H)-pyrimidinedione]
Preemergence herbicidal rating ABUTH (ABUTH (Velvetleaf) [1]; rate 0.0156 kg/ha): 4.0 | Preemergence herbicidal rating ABUTH (ABUTH (Velvetleaf) [1]; rate 0.0313 kg/ha): 9.0 | Preemergence herbicidal rating ABUTH (ABUTH (Velvetleaf) [1]; rate 0.0625 kg/ha): 9.0 | Preemergence herbicidal rating ABUTH (ABUTH (Velvetleaf) [1]; rate 0.1250 kg/ha): 9.0 | Preemergence herbicidal rating ABUTH (ABUTH (Velvetleaf) [1]; rate 0.2500 kg/ha): 9.0 | herbicidal effect rating, ECHORC ([2]; 0.0313 kg/ha): 7.0 | herbicidal effect rating, ECHORC ([2]; 0.0625 kg/ha): 7.0 | herbicidal effect rating, ECHORC ([2]; 0.1250 kg/ha): 7.0 | herbicidal effect rating, ECHORC ([2]; 0.2500 kg/ha): 9.0 | Preemergence herbicidal rating CASOB (CASOB (Sicklepod); rate 0.0156 kg/ha): 0.0 | Preemergence herbicidal rating CASOB (CASOB (Sicklepod); rate 0.0313 kg/ha): 0.0 | Preemergence herbicidal rating CASOB (CASOB (Sicklepod); rate 0.0625 kg/ha): 0.0 | Preemergence herbicidal rating CASOB (CASOB (Sicklepod); rate 0.1250 kg/ha): 0.0 | Preemergence herbicidal rating CASOB (CASOB (Sicklepod); rate 0.2500 kg/ha): 0.0 | herbicidal effect rating, CYPSE (CYPSE (Flatsedge); 0.0313 kg/ha): 0.0 | herbicidal effect rating, CYPSE (CYPSE (Flatsedge); 0.0625 kg/ha): 0.0 | herbicidal effect rating, CYPSE (CYPSE (Flatsedge); 0.1250 kg/ha): 0.0 | herbicidal effect rating, CYPSE (CYPSE (Flatsedge); 0.2500 kg/ha): 0.0 | Preemergence herbicidal rating AMBEL (AMBEL (Ragweed, Common); rate 0.0156 kg/ha): 0.0 | Preemergence herbicidal rating AMBEL (AMBEL (Ragweed, Common); rate 0.0313 kg/ha): 0.0 | Preemergence herbicidal rating AMBEL (AMBEL (Ragweed, Common); rate 0.0625 kg/ha): 1.0 | Preemergence herbicidal rating AMBEL (AMBEL (Ragweed, Common); rate 0.1250 kg/ha): 2.0 | Preemergence herbicidal rating AMBEL (AMBEL (Ragweed, Common); rate 0.2500 kg/ha): 5.0 | Herbicidal rating ZEAMX (ZEAMX (Corn, Field); rate 0.0156 kg/ha): 4.0 | Herbicidal rating ZEAMX (ZEAMX (Corn, Field); rate 0.0313 kg/ha): 4.0 | Herbicidal rating ZEAMX (ZEAMX (Corn, Field); rate 0.0625 kg/ha): 4.0 | Preemergence herbicidal rating IPOHE ([3]; rate 0.0156 kg/ha): 0.0 | Preemergence herbicidal rating IPOHE ([3]; rate 0.0313 kg/ha): 0.0 | Preemergence herbicidal rating IPOHE ([3]; rate 0.0625 kg/ha): 0.0 | Preemergence herbicidal rating IPOHE ([3]; rate 0.1250 kg/ha): 0.0 | Preemergence herbicidal rating IPOHE ([3]; rate 0.2500 kg/ha): 0.0 | Herbicidal rating SETVI (SETVI (Foxtail, Green); rate 0.0156 kg/ha): 4.0 | Herbicidal rating SETVI (SETVI (Foxtail, Green); rate 0.0313 kg/ha): 6.0 | Herbicidal rating SETVI (SETVI (Foxtail, Green); rate 0.0625 kg/ha): 6.0 | Herbicidal rating GLXMAW ([4]; rate 0.0156 kg/ha): 4.5 | Herbicidal rating GLXMAW ([4]; rate 0.0313 kg/ha): 5.5 | Herbicidal rating GLXMAW ([4]; rate 0.0625 kg/ha): 5.5 | Herbicidal rating ABUTH (ABUTH (Velvetleaf) [5]; rate 0.0156 kg/ha): 9.0 | Herbicidal rating ABUTH (ABUTH (Velvetleaf) [5]; rate 0.0313 kg/ha): 9.0 | Herbicidal rating ABUTH (ABUTH (Velvetleaf) [5]; rate 0.0625 kg/ha): 9.0 | Herbicidal rating IPOHE ([6]; rate 0.0156 kg/ha): 9.0 | Herbicidal rating IPOHE ([6]; rate 0.0313 kg/ha): 9.0 | Herbicidal rating IPOHE ([6]; rate 0.0625 kg/ha): 9.0 | Preemergence herbicidal rating ECHCG (ECHCG (Barnyardgrass); rate 0.0156 kg/ha): 0.0 | Preemergence herbicidal rating ECHCG (ECHCG (Barnyardgrass); rate 0.0313 kg/ha): 0.0 | Preemergence herbicidal rating ECHCG (ECHCG (Barnyardgrass); rate 0.0625 kg/ha): 0.0 | Preemergence herbicidal rating ECHCG (ECHCG (Barnyardgrass); rate 0.1250 kg/ha): 0.0 | Preemergence herbicidal rating ECHCG (ECHCG (Barnyardgrass); rate 0.2500 kg/ha): 0.0
